In ChEMBL document CHEMBL4229496, “Discovery of small molecule inhibitors of adenovirus by disrupting E3-19K/HLA-A2 interactions” (Bioorg Med Chem Lett, 2018) one finds Kd data, which are given here for six compounds.

Where a name gives a salt, the structure may show the parent alone.

This assay has as its target HLA class I histocompatibility antigen, A alpha chain (Homo sapiens, UniProt P04439, D140Y/D185E/D98H/E176V/E277Q/G131W/G231S/I119V/I121R/I166T/I218V/L300P/L318F/N151K/N90K/P208A/P217A/Q86G/Q94H/R138H/R169H/T345S). Put plainly: Binding affinity to human biotinylated HLA-A2 by surface plasmon resonance assay. In general terms: In SPR one partner is held on a chip, and binding of the other changes the refractive index at the surface.
Take `O=C(CCCN1CCC2(CC1)C(=O)NCN2c1ccccc1)c1ccc(F)cc1` [SPIPERONE]: the Kd lay within 2.5 to 75 µM.

The compound `O=c1n(CCCN2CCN(c3cccc(Cl)c3)CC2)nc2ccccn12` [TRAZODONE HYDROCHLORIDE] displayed a Kd of 2.5 µM. For `O=C(CCCN1CCC(O)(c2ccc(Cl)cc2)CC1)c1ccc(F)cc1` [HALOPERIDOL] the value was < 10 µM.

`O=C(c1ccc(OCCN2CCCCC2)cc1)c1c(-c2ccc(O)cc2)sc2cc(O)ccc12` [RALOXIFENE HYDROCHLORIDE] returned a Kd of 22 µM. For `COc1cc2nc(N3CCN(C(=O)C4COc5ccccc5O4)CC3)nc(N)c2cc1OC` (stereo unspecified) [DOXAZOSIN MESYLATE] the value was 15.7 µM; for `COc1ccc(CCN2CCC(Nc3nc4ccccc4n3Cc3ccc(F)cc3)CC2)cc1` [ASTEMIZOLE], 2.5 to 75 µM.

One may read the Kd as the free concentration of one partner at which half of the binding sites on the other are occupied at equilibrium, for simple one-to-one binding. Low values mean a tighter complex, high ones a looser complex.
